Target: deoxyguanosine kinase (Homo sapiens)
Test: Inhibition of human dGK assessed as […] phosphorylation

IC50 [µM] | SMILES
> 500 | CCCCCCCC(=O)Nc1nc2c(ncn2[C@@H]2O[C@H](CO)[C@@H](O)[C@@H]2OC(=O)CCCCCCC)c(=O)[nH]1 [N2-octanoyl-9-(2'-O-octanoyl-beta-D-arabinofuranosyl)guanine]
> 500 | CCCCCCCC(=O)O[C@H]1[C@H](O)[C@@H](CO)O[C@H]1n1cnc2c(=O)[nH]c(N)nc21 [9-(2'-O-octanoyl-beta-D-arabinofuranosyl)guanine]

From BindingDB's records for doi:10.1016/j.bmc.2007.01.049 (University of Ferrara, 2007)
